# Source: US20250243488A1, “METHODS OF MODULATING PROGRANULIN EXPRESSION USING ANTISENSE OLIGONUCLEOTIDES TARGETING REGULATORY RNAS” (Camp4 Therapeutics Corporation, priority 2022, published 2025)
# Oligonucleotides are written 5' to 3', each unit as a sugar letter and its base; * is a phosphorothioate linkage, no mark a phosphodiester; rarer units and linkages stand in square brackets, end groups in braces. Plain capitals give the bases only. e = 2'-O-(2-methoxyethyl) (MOE); [5mC] = 5-methylcytosine
# System: GRN mRNA
# Experiment: GRN mRNA qPCR in SK-N-AS cells transfected with ASOs
# Format: cell-based, human
# Details: SK-N-AS; for hGRN mRNA FC: Table 9, 48 hours post-transfection; for hGRN mRNA FC / 120 nM FC (GRN mRNA): 120 nM; for hit identification (GRN mRNA dose escalation): 3.75 nM to 120 nM
# Summary of the method: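 Human neuroblastoma SK-N-AS cells transfected with ASOs at increasing concentrations (20 to 160 nM in initial titrations); GRN mRNA quantified by qPCR after 48 hours. Normalized to GAPDH and PPIA, fold change relative to steric non-targeting control ASO(s) (sNTC/CO-1589, with CO-3772 and CO-1929 in some series).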
# [1] = Table 10, 48 hours, normalized to CO-1589
# [2] = Table 7, normalized to CO-1589 (sNTC1)
substance,measurement,setting,value
CO-4633: ASO designed to target intergenic enhancers (eRNA) (antisense eT*e[5mC]*e[5mC]*eT*e[5mC]*eT*eG*e[5mC]*e[5mC]*eT*eG*eA*e[5mC]*eT*eA*eA*eT*eT*e[5mC]*eG),hGRN mRNA FC,normalized to CO-1589,1.3 FC
CO-4634: ASO designed to target intergenic enhancers (eRNA) (antisense eT*eT*eT*eA*e[5mC]*e[5mC]*e[5mC]*eA*eT*eA*eT*eA*e[5mC]*e[5mC]*e[5mC]*eA*e[5mC]*eA*e[5mC]*e[5mC]),hGRN mRNA FC,normalized to CO-1589,1.1 FC
CO-4635: ASO designed to target intergenic enhancers (eRNA) (antisense eG*eT*eT*eT*eG*e[5mC]*eA*eA*eT*eT*e[5mC]*eT*e[5mC]*eA*eG*eA*e[5mC]*e[5mC]*eT*eG),hGRN mRNA FC,normalized to CO-1589,1.0 FC
CO-4636: ASO designed to target intergenic enhancers (eRNA) (antisense eG*eG*e[5mC]*eA*eA*eT*eT*eA*e[5mC]*eA*eT*eA*e[5mC]*eA*eT*eG*eA*eG*eG*eA),hGRN mRNA FC,normalized to CO-1589,0.9 FC
CO-4637: ASO designed to target intergenic enhancers (eRNA) (antisense eT*eA*eA*eG*eG*eT*eG*eT*eA*eG*eG*eA*e[5mC]*eA*eG*eT*e[5mC]*eT*eG*eA),hit identification (GRN mRNA dose escalation),48 hours,initial hits
same,hGRN mRNA FC,normalized to CO-1589,0.9 FC
same,3.75 nM FC (GRN mRNA),[1],1.1 FC
same,7.5 nM FC (GRN mRNA),[1],1.1 FC
same,15 nM FC (GRN mRNA),[1],1.2 FC
same,30 nM FC (GRN mRNA),[1],1.1 FC
same,60 nM FC (GRN mRNA),[1],1.2 FC
same,120 nM FC (GRN mRNA),[1],1.3 FC
CO-4638: ASO designed to target intergenic enhancers (eRNA) (antisense eT*eT*eG*eA*eT*eA*eG*eA*eT*eG*eG*e[5mC]*eA*eG*eG*eT*e[5mC]*eA*eG*eG),hGRN mRNA FC,normalized to CO-1589,1.0 FC
CO-4639: ASO designed to target intergenic enhancers (eRNA) (antisense eG*eA*eA*eA*eT*eT*eT*eA*eT*eG*e[5mC]*eG*eG*e[5mC]*e[5mC]*eA*e[5mC]*eT*eG*eT),hGRN mRNA FC,normalized to CO-1589,1.1 FC
CO-4640: ASO designed to target intergenic enhancers (eRNA) (antisense eG*e[5mC]*e[5mC]*e[5mC]*e[5mC]*e[5mC]*eT*eA*eG*eA*eG*eG*eA*e[5mC]*eA*eT*eT*eT*eT*eT),hGRN mRNA FC,normalized to CO-1589,1.0 FC
CO-4641: ASO designed to target intergenic enhancers (eRNA) (antisense e[5mC]*eG*eT*eT*e[5mC]*e[5mC]*eA*eA*eA*e[5mC]*eA*eG*e[5mC]*eA*eG*e[5mC]*eG*eT*eT*eA),hGRN mRNA FC,normalized to CO-1589,0.9 FC
CO-4642: ASO designed to target intergenic enhancers (eRNA) (antisense eG*eG*e[5mC]*eT*eG*e[5mC]*eA*eG*eA*eT*e[5mC]*eT*e[5mC]*eT*eA*eT*eA*eT*e[5mC]*eA),hGRN mRNA FC,normalized to CO-1589,1.0 FC
CO-4643: ASO designed to target intergenic enhancers (eRNA) (antisense e[5mC]*eG*eG*e[5mC]*eA*eT*eT*e[5mC]*e[5mC]*e[5mC]*eT*eG*eA*e[5mC]*e[5mC]*eT*eA*eT*e[5mC]*e[5mC]),hGRN mRNA FC,normalized to CO-1589,0.9 FC
CO-4644: ASO designed to target intergenic enhancers (eRNA) (antisense eG*eT*eT*eA*eA*eG*eT*eA*e[5mC]*eG*eT*eG*eA*e[5mC]*e[5mC]*e[5mC]*eT*eA*eT*e[5mC]),hGRN mRNA FC,normalized to CO-1589,1.1 FC
CO-4645: ASO designed to target intergenic enhancers (eRNA) (antisense eA*e[5mC]*eA*eG*e[5mC]*eA*eG*eA*eA*e[5mC]*eA*eT*e[5mC]*e[5mC]*e[5mC]*eG*eT*eG*eA*eA),hGRN mRNA FC,normalized to CO-1589,1.4 FC
CO-4646: ASO designed to target intergenic enhancers (eRNA) (antisense eG*eT*eG*eT*eG*eA*eA*eA*eT*eG*eA*eT*eG*eG*eT*eA*e[5mC]*e[5mC]*eA*eG),hGRN mRNA FC,normalized to CO-1589,1.3 FC
CO-4647: ASO designed to target intergenic enhancers (eRNA) (antisense e[5mC]*eT*eA*eA*eG*e[5mC]*eG*eT*eT*eT*e[5mC]*eT*e[5mC]*eT*eA*eG*eT*e[5mC]*eA*eT),hGRN mRNA FC,normalized to CO-1589,0.8 FC
CO-4648: ASO designed to target intergenic enhancers (eRNA) (antisense eA*e[5mC]*eG*e[5mC]*e[5mC]*eA*eA*eA*e[5mC]*e[5mC]*e[5mC]*eT*eT*eG*eA*eT*e[5mC]*e[5mC]*eA*eG),hGRN mRNA FC,normalized to CO-1589,1.6 FC
CO-4649: ASO designed to target intergenic enhancers (eRNA) (antisense eT*eG*eG*eG*eA*e[5mC]*eA*eG*e[5mC]*eG*eT*eG*eG*eA*eT*eT*eA*eA*eT*eA),hit identification (GRN mRNA dose escalation),48 hours,initial hits
same,hGRN mRNA FC,normalized to CO-1589,1.2 FC
same,3.75 nM FC (GRN mRNA),[1],1.2 FC
same,7.5 nM FC (GRN mRNA),[1],1.2 FC
same,15 nM FC (GRN mRNA),[1],1.3 FC
same,30 nM FC (GRN mRNA),[1],1.2 FC
same,60 nM FC (GRN mRNA),[1],1.2 FC
same,120 nM FC (GRN mRNA),[1],1.3 FC
CO-4650: ASO designed to target intergenic enhancers (eRNA) (antisense eT*eA*eA*eG*eA*e[5mC]*eT*eT*eT*e[5mC]*e[5mC]*eA*eG*e[5mC]*eA*eT*eG*eT*e[5mC]*e[5mC]),hGRN mRNA FC,normalized to CO-1589,1.1 FC
CO-4651: ASO designed to target intergenic enhancers (eRNA) (antisense eT*eA*eG*eG*e[5mC]*eA*e[5mC]*e[5mC]*e[5mC]*eA*eA*eG*eG*e[5mC]*eT*eT*eT*eA*eT*eT),hGRN mRNA FC,normalized to CO-1589,1.3 FC
"CO-5266: CO-3423 with additional LNA tiling and PO bond modifications (antisense GGACTTGGGAGTGGTGACTG; 2'-MOE, mixed PS/PO, 5-methylcytosine; listed as RNA; modified_base 1..7: mod_base = OTHER; note = Phosphorothioate linkage; modified_base 17..20: mod_base = OTHER; modified_base 1..20: mod_base = OTHER; note = 2'-O-(2-methoxyethyl) ribonucleotide; modified_base 4)",7.5 nM FC (GRN mRNA),[2],1.0 FC
same,13 nM FC (GRN mRNA),[2],1.0 FC
same,30 nM FC (GRN mRNA),[2],1.2 FC
same,60 nM FC (GRN mRNA),[2],1.7 FC
same,120 nM FC (GRN mRNA),[2],2.0 FC
same,150 nM FC (GRN mRNA),[2],2.2 FC
"CO-5267: CO-3423 with additional LNA tiling and PO bond modifications (antisense GGACTTGGGAGTGGTGACTG; 2'-MOE, mixed PS/PO, 5-methylcytosine; listed as RNA; modified_base 1..9: mod_base = OTHER; note = Phosphorothioate linkage; modified_base 17..20: mod_base = OTHER; modified_base 1..20: mod_base = OTHER; note = 2'-O-(2-methoxyethyl) ribonucleotide; modified_base 4)",7.5 nM FC (GRN mRNA),[2],1.0 FC
same,13 nM FC (GRN mRNA),[2],1.0 FC
same,30 nM FC (GRN mRNA),[2],1.2 FC
same,60 nM FC (GRN mRNA),[2],1.7 FC
same,120 nM FC (GRN mRNA),[2],1.9 FC
same,150 nM FC (GRN mRNA),[2],2.3 FC
